Source: the Kinase Knowledgebase extract (Sharma et al. 2016)

Key:
PIK3CA (human) = PIK3CA (human) (UniProt P42336); experiment: Assessment of PIK3CA Kinase Activity
PIK3CB (Human) = PIK3CB (Human) (UniProt P42338); experiment: Assessment of PIK3CB Kinase Activity
PIK3CD (Human) = PIK3CD (Human) (UniProt O00329); experiment: Assessment of PIK3CD Kinase Activity
PIK3CG (human) = PIK3CG (human) (UniProt P48736); experiment: Assessment of PIK3CG Kinase Activity
Chain of PIK3CG (human) (P48736 whole entry, looked up): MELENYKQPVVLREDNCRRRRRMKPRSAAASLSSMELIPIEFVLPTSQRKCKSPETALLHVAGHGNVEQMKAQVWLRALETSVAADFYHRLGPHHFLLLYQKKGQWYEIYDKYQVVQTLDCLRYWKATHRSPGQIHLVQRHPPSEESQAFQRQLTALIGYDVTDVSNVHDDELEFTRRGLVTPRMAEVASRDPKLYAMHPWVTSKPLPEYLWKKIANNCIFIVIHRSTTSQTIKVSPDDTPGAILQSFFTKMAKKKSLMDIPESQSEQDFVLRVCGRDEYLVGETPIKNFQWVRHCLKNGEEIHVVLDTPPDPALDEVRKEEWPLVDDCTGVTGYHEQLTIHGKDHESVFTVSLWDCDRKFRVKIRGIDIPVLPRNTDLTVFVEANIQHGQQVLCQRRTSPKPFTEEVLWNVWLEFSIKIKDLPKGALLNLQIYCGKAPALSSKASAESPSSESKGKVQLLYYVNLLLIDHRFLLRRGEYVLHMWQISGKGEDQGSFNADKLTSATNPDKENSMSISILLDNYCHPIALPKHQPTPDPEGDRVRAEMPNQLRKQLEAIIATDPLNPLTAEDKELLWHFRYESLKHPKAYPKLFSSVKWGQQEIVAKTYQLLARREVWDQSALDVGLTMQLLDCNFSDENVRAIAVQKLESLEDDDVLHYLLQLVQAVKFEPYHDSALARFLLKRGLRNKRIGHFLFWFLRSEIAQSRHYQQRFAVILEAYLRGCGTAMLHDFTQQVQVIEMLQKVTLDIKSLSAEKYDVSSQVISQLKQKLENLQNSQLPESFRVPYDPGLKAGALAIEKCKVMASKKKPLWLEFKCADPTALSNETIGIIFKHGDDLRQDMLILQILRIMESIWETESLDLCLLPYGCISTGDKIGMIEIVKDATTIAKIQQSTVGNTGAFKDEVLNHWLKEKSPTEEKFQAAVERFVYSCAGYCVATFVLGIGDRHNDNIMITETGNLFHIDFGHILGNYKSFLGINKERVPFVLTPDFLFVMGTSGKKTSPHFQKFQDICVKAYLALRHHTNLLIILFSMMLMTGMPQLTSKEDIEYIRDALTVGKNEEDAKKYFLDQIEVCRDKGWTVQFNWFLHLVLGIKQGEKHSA

Chain of PIK3CD (Human) (O00329 whole entry, looked up): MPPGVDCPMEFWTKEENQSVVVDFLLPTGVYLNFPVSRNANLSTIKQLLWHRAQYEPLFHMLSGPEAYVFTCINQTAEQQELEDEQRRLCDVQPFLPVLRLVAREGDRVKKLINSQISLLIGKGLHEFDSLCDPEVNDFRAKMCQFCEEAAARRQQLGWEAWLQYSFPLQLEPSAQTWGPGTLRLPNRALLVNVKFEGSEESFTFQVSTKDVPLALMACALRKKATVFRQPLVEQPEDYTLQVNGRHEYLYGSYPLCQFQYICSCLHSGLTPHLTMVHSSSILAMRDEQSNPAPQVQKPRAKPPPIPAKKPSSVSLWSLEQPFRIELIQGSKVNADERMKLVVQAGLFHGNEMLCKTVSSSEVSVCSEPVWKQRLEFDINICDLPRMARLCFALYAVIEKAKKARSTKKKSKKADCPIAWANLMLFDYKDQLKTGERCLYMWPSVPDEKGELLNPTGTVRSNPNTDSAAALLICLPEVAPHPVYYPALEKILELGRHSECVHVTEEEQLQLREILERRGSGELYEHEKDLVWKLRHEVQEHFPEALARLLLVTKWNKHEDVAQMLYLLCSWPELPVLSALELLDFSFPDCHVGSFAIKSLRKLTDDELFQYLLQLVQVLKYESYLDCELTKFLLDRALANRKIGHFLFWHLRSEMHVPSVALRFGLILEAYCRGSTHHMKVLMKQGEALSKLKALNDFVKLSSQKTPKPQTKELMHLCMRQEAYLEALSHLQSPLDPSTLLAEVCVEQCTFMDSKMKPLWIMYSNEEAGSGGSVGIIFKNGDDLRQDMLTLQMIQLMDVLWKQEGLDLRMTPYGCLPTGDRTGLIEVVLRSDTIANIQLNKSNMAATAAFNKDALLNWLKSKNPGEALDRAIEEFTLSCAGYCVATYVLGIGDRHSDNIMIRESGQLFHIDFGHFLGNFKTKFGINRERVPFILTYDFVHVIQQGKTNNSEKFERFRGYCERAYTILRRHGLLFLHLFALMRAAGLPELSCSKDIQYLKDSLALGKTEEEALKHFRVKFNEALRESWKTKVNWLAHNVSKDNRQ
Chain of PIK3CA (human) (P42336 whole entry, looked up): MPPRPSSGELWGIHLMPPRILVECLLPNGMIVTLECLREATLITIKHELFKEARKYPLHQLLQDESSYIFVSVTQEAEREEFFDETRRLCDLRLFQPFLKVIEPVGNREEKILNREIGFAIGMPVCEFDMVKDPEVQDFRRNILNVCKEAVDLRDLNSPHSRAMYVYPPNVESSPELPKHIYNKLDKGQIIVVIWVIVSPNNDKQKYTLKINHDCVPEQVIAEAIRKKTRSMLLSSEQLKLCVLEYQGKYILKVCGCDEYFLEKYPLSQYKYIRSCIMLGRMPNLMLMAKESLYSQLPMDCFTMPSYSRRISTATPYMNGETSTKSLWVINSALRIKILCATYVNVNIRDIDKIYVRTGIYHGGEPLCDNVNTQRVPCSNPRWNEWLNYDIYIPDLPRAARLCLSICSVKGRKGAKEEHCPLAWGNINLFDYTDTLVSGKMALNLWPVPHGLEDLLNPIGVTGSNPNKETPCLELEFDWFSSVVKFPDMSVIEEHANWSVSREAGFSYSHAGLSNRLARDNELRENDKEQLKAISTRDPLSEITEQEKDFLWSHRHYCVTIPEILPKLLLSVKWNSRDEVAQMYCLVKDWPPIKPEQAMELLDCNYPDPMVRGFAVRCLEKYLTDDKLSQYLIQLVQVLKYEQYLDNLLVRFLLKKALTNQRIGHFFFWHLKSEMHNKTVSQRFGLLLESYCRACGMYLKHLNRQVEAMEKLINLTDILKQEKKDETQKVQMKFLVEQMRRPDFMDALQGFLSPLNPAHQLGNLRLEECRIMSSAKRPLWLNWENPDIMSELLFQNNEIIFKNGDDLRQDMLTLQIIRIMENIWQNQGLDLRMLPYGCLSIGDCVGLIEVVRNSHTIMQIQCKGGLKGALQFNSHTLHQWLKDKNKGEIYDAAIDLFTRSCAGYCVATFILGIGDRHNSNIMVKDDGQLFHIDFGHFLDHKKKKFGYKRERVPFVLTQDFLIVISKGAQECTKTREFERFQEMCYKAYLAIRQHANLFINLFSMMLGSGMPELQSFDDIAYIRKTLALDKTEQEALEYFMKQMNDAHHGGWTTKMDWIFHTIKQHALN
Chain of PIK3CB (Human) (P42338 whole entry, looked up): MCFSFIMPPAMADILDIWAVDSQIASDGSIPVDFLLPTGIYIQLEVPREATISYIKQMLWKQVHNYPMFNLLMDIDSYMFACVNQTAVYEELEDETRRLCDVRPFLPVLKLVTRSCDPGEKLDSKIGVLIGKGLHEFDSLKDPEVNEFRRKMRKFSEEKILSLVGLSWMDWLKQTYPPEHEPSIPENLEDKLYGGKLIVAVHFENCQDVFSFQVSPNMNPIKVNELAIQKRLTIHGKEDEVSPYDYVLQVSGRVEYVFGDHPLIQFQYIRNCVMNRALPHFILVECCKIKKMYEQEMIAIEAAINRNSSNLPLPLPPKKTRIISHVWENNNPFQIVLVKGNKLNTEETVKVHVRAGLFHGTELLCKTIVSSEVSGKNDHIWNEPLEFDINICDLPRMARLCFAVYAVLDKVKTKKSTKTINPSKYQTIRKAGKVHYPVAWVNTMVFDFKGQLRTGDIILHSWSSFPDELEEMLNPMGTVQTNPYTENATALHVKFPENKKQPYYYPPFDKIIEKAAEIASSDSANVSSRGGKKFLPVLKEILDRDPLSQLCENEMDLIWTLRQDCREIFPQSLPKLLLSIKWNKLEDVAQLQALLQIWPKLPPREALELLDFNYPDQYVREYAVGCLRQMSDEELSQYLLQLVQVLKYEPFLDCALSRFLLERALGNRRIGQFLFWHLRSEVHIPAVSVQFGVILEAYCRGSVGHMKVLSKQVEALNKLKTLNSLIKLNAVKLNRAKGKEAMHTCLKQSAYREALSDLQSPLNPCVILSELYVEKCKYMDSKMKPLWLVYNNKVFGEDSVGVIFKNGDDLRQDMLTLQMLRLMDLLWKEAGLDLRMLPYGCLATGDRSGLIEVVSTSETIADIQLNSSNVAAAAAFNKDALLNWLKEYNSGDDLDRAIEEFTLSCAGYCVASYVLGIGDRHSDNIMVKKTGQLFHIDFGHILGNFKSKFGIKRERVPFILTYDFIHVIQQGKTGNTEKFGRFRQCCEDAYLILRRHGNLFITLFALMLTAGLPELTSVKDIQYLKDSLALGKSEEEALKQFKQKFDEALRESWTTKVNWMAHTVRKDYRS

IC50 (PIK3CA (human)) | IC50 (PIK3CB (Human)) | IC50 (PIK3CD (Human)) | IC50 (PIK3CG (human)) | SMILES
> 10 µM | > 10 µM | > 10 µM | > 10 µM | COC(=O)N1Cc2nc(-c3ccc(NC(=O)NCCF)cc3F)nc(N3CCOCC3)c2C1
– | – | > 10 µM | – | C[C@H]1COCCN1c1nc(-c2ccc(NC(=O)NC3CCC3)cc2)nc2c1CN(C)C2
– | – | > 10 µM | – | COCCCNC(=O)Nc1ccc(-c2nc3c(c(N4CCOC[C@@H]4C)n2)CN(C)C3)cc1
– | – | > 10 µM | – | C[C@H]1COCCN1c1nc(-c2ccc(NC(=O)NCCCO)cc2)nc2c1CN(C)C2
0.1 to 1 µM | 0.1 to 1 µM | 0.1 to 1 µM | – | C[C@H]1COCCN1c1nc(-c2ccc(NC(=O)NCCN(C)C)cc2)nc2c1CN(C)C2
